Assay results published in patent US8748436B2, “Carboxylic acid derivatives having a 2,5,7-substituted oxazolopyrimidine ring” (Sanofi, priority 2010, dated 2014).

Biological target: T1, human Edg-1 receptor (Homo sapiens, UniProt P21453)
T1 construct: FLAG (N); expressed in transfected cells; membrane preparation
Assay: GTP-γ-S assay using human Edg-1 receptors (scintillation proximity assay, CHO Flp-In cell membrane preparation)
Type: biochemical
Conditions: test compound at 10 μM; high control 10 μM S1P regarded as 100% activation; [35S]GTP-γ-S binding, triplicate
Text: A) GTP-γ-S Assay Using Human Edg-1 Receptors
In order to determine the Edg-1 receptor activation by the compounds of the invention, a GTP-γ-S (guanosine 5′-[thio]triphosphate) assay for G-protein coupled receptor binding based on the scintillation proximity assay principle was used, employing a cell membrane preparation from a CHO Flp-In cell line which constitutively overexpresses the human Edg-1 receptor.
The Flp-In™ expression system (Invitrogen, cat. no. K6010-01) allows the generation of stable mammalian cell lines into which the gene of interest has been integrated through homologous recombination at a specific genomic location called Flp Recombination Target (FRT) site by means of a Flp recombinase encoded by the pOG44 expression plasmid. The integration of the pcDNA5/FRT expression construct into the Flp-In host cell line genome results in the transcription of the gene of interest. The stably transfected cells become hygromycin-resistant.
One day prior to transfection, 200 000 Flp-In-CHO cells were seeded in Ham F-12 medium (Invitrogen, cat. no. 31765) supplemented with 10% fetal calf serum (FCS; Perbio Science, cat. no. SH30068.03) in a 6-well plate and incubated at 37° C./5% CO2 overnight. Using the FuGENE® 6 transfection reagent (Roche, cat. no. 11988387001), cells were cotransfected with the Flp recombinase expression plasmid pOG44 and a modified plasmid additionally containing the edg-1 gene (accession no. NM_001400) termed as pcDNA5-FRT-TO_nFLAG_DEST-EDG-1 with a 9:1 ratio. To obtain the modified pcDNA5-FRT-TO_nFLAG_DEST plasmid, the Invitrogen plasmid pcDNA5/FRT/TO (Invitrogen, cat. no. V6520-20) was adapted to the Gateway® (Invitrogen) cloning system by inserting a Gateway cassette containing attR recombination sites flanking a ccdB gene and a chloramphenicol-resistance gene (Gateway conversion system, Invitrogen, cat. no. 11828-029). In addition a FLAG tag epitope was added before the 5′ att recombination site to allow recombinant expression of N-terminally FLAG-tagged proteins.
For the transfection of one well, 1.08 μg of pOG44 and 0.12 μg of pcDNA5-FRT-TO_nFLAG_DEST-EDG-1 were mixed to 100 μl of serum-free Ham F-12 medium containing 6 μl of FuGENE® 6 transfection reagent. After 20 min of incubation, the transfection reagent/DNA complex was distributed dropwise on the cells. The cells were incubated for 24 h at 37° C. Then the cells from 3 wells were transferred to a T75 flask (Greiner Cellstar®, cat. no. 658175) containing Ham F-12 medium supplemented with 10% of FCS but without antibiotic and were incubated another 24 h. 48 h after transfection, the medium was replaced by selection medium (Ham F-12 supplemented with 10% of FCS and 300 μg/ml of hygromycin B (Invitrogen, cat. no. 10687-010)). The medium was exchanged every 2 to 3 days until a resistant population of cells had grown. […] After 2 weeks of selection, the cells were transferred into T175 flasks (Greiner Cellstar®, cat. no. 660175) and cultivated for batch production. Cells were harvested from the culture flasks by short treatment (2 to 5 min) with Accutase (PAA, cat. no. L11-007), resuspended in selection medium (see above) and centrifuged at 200×g for 5 min. The cells were resuspended in a mixture of 90% of FCS and 10% of dimethylsulfoxide and stored frozen in liquid nitrogen.
A membrane preparation was obtained by standard methods from the afore-described CHO Flp-In cell line constitutively overexpressing the human Edg-1 receptor. Briefly, the cryopreserved cells were taken in culture and grown until confluency in T175 cell culture flasks (Becton Dickinson, cat. no. 35 5001). […]

T1 sequence (P21453 whole entry): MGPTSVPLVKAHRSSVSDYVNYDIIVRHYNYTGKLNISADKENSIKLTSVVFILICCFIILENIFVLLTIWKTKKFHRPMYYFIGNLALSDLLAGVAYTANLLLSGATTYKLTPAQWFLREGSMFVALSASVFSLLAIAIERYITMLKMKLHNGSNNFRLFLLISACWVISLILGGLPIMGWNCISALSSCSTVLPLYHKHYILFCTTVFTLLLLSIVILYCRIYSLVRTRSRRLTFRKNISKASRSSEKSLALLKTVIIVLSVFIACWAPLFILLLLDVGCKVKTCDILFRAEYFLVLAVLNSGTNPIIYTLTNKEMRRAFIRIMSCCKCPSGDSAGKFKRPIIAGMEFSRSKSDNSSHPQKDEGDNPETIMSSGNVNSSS

SMILES | % Activation (Edg-1 receptor activation in percent of the activation by 10 μM S1P) [%]
CCCOc1nc(OC(C)CC(F)(F)F)nc2oc(-c3cc(C)c(OCC(=O)O)c(C)c3)nc12 (centres unmarked) [Example 21, {2,6-dimethyl-4-[7-propoxy-5-(3,3,3-trifluoro-1-methyl-propoxy)-oxazolo[5,4--d]pyrimidin-2-yl]-phenoxy}-acetic acid] | 81

Same assay, conditions: test compound at 10 μM; high control 10 μM S1P regarded as 100% activation; [35S]GTP-γ-S binding, triplicate; read-out: % Activation (Edg-1 receptor activation in percent of the activation by 10 μM S1P)

SMILES | activation at 10 µM [%]
CCCOc1nc(O[C@@H]2CCCC[C@H]2F)nc2oc(-c3cc(C)c(OCC(=O)O)c(C)c3)nc12 (relative stereo) [Example 3, {4-[5-(trans-2-Fluoro-cyclohexyloxy)-7-propoxy-oxazolo[5,4-d]pyrimidin-2-yl]-2,6-dimethyl-phenoxy}-acetic acid] | 65
CCCOc1nc(OC2CCCC2)nc2oc(-c3cc(C)c(OCC(=O)O)c(C)c3)nc12 [Example 2, [4-(5-Cyclopentyloxy-7-propoxy-oxazolo[5,4-d]pyrimidin-2-yl)-2,6-dimethyl-phenoxy]-acetic acid] | 90
CCCOc1nc(OCC2CCCCC2)nc2oc(-c3cc(C)c(OCC(=O)O)c(C)c3)nc12 [Example 11, [4-(5-cyclohexylmethoxy-7-propoxy-oxazolo[5,4-d]pyrimidin-2-yl)-2,6-dimethyl-phenoxy]-acetic acid] | 76
CCCOc1nc(OCC(C)C)nc2oc(-c3cc(C)c(OCC(=O)O)c(C)c3)nc12 [Example 12, [4-(5-isobutoxy-7-propoxy-oxazolo[5,4-d]pyrimidin-2-yl)-2,6-dimethyl-phenoxy]-acetic acid] | 97
CCCOc1nc(OCC2CCC2)nc2oc(-c3cc(C)c(OCC(=O)O)c(C)c3)nc12 [Example 13, [4-(5-cyclobutylmethoxy-7-propoxy-oxazolo[5,4-d]pyrimidin-2-yl)-2,6-dimethyl-phenoxy]-acetic acid] | 99
CCCOc1nc(OC2CCC2)nc2oc(-c3cc(C)c(OCC(=O)O)c(C)c3)nc12 [Example 14, [4-(5-cyclobutoxy-7-propoxy-oxazolo[5,4-d]pyrimidin-2-yl)-2,6-dimethyl-phenoxy]-acetic acid] | 88
CCCOc1nc(OCCC)c2nc(-c3cc(C)c(OCC(=O)O)c(C)c3)oc2n1 [Example 15, [4-(5,7-dipropoxy-oxazolo[5,4-d]pyrimidin-2-yl)-2,6-dimethyl-phenoxy]-acetic acid] | 98
CCCOc1nc(OCCC(F)(F)F)nc2oc(-c3cc(C)c(OCC(=O)O)c(C)c3)nc12 [Example 16, {2,6-dimethyl-4-[7-propoxy-5-(3,3,3-trifluoro-propoxy)-oxazolo[5,4-d]pyrimidin-2-yl]-phenoxy}-acetic acid] | 107
CCCOc1nc(OCC)nc2oc(-c3cc(C)c(OCC(=O)O)c(C)c3)nc12 [Example 17, [4-(5-ethoxy-7-propoxy-oxazolo[5,4-d]pyrimidin-2-yl)-2,6-dimethyl-phenoxy]-acetic acid] | 70
CCCOc1nc(OCC2CCCC2)nc2oc(-c3cc(C)c(OCC(=O)O)c(C)c3)nc12 [Example 18, [4-(5-cyclopentylmethoxy-7-propoxy-oxazolo[5,4-d]pyrimidin-2-yl)-2,6-dimethyl-phenoxy]-acetic acid] | 83
CCCOc1nc(OCC2CCCO2)nc2oc(-c3cc(C)c(OCC(=O)O)c(C)c3)nc12 (centres unmarked) [Example 19, {2,6-dimethyl-4-[7-propoxy-5-(tetrahydrofuran-2-ylmethoxy)-oxazolo[5,4-d]pyrimidin-2-yl]-phenoxy}-acetic acid] | 84
CCCOc1nc(OC(C)CC)nc2oc(-c3cc(C)c(OCC(=O)O)c(C)c3)nc12 (centres unmarked) [Example 20, [4-(5-sec-butoxy-7-propoxy-oxazolo[5,4-d]pyrimidin-2-yl)-2,6-dimethyl-phenoxy]-acetic acid] | 80
CCCOc1nc(OCCC(C)C)nc2oc(-c3cc(C)c(OCC(=O)O)c(C)c3)nc12 [Example 22, {2,6-dimethyl-4-[5-(3-methyl-butoxy)-7-propoxy-oxazolo[5,4-d]pyrimidin-2-yl]-phenoxy}-acetic acid] | 92
CCCOc1nc(OCCC2CC2)nc2oc(-c3cc(C)c(OCC(=O)O)c(C)c3)nc12 [Example 23, {4-[5-(2-cyclopropyl-ethoxy)-7-propoxy-oxazolo[5,4-d]pyrimidin-2-yl]-2,6-dimethyl-phenoxy}-acetic acid] | 98
CCCOc1nc(OC(C)C(F)(F)F)nc2oc(-c3cc(C)c(OCC(=O)O)c(C)c3)nc12 (centres unmarked) [Example 24, {2,6-dimethyl-4-[7-propoxy-5-(2,2,2-trifluoro-1-methyl-ethoxy)-oxazolo[5,4-d]pyrimidin-2-yl]-phenoxy}-acetic acid] | 85

Results, then the compound that gave them:

activation at 10 µM [%] | SMILES
100 | CCCOc1nc(Oc2cc(F)ccc2F)nc2oc(-c3cc(C)c(OCC(=O)O)c(C)c3)nc12 [Example 1, {4-[5-(2,5-Difluoro-phenoxy)-7-propoxy-oxazolo[5,4-d]pyrimidin-2-yl]-2,6-dimethyl-phenoxy}-acetic acid]
76 | CCCOc1nc(Oc2ccccc2F)nc2oc(-c3cc(C)c(OCC(=O)O)c(C)c3)nc12 [Example 4, {4-[5-(2-fluoro-phenoxy)-7-propoxy-oxazolo[5,4-d]pyrimidin-2-yl]-2,6-dimethyl-phenoxy}-acetic acid]
91 | CCCOc1nc(Oc2cc(F)ccc2C)nc2oc(-c3cc(C)c(OCC(=O)O)c(C)c3)nc12 [Example 5, {4-[5-(5-fluoro-2-methyl-phenoxy)-7-propoxy-oxazolo[5,4-d]pyrimidin-2-yl]-2,6-dimethyl-phenoxy}-acetic acid]
73 | CCCOc1nc(Oc2ccc(C)c(F)c2)nc2oc(-c3cc(C)c(OCC(=O)O)c(C)c3)nc12 [Example 6, {4-[5-(3-fluoro-4-methyl-phenoxy)-7-propoxy-oxazolo[5,4-d]pyrimidin-2-yl]-2,6-dimethyl-phenoxy}-acetic acid]
87 | CCCOc1nc(Oc2cccnc2)nc2oc(-c3cc(C)c(OCC(=O)O)c(C)c3)nc12 [Example 7, {2,6-dimethyl-4-[7-propoxy-5-(pyridin-3-yloxy)-oxazolo[5,4-d]pyrimidin-2-yl]-phenoxy}-acetic acid]
84 | CCCOc1nc(Oc2ccc(F)cc2F)nc2oc(-c3cc(C)c(OCC(=O)O)c(C)c3)nc12 [Example 8, {4-[5-(2,4-difluoro-phenoxy)-7-propoxy-oxazolo[5,4-d]pyrimidin-2-yl]-2,6-dimethyl-phenoxy}-acetic acid]
84 | CCCOc1nc(Oc2ccccc2)nc2oc(-c3cc(C)c(OCC(=O)O)c(C)c3)nc12 [Example 9, [2,6-dimethyl-4-(5-phenoxy-7-propoxy-oxazolo[5,4-d]pyrimidin-2-yl)-phenoxy]-acetic acid]
86 | CCCOc1nc(Oc2cccc(Cl)c2)nc2oc(-c3cc(C)c(OCC(=O)O)c(C)c3)nc12 [Example 10, {4-[5-(3-chloro-phenoxy)-7-propoxy-oxazolo[5,4-d]pyrimidin-2-yl]-2,6-dimethyl-phenoxy}-acetic acid]
84 | CCOc1nc(Oc2cccc(F)c2)nc2oc(-c3cc(C)c(OCC(=O)O)c(C)c3)nc12 [Example 25, {4-[7-ethoxy-5-(3-fluorophenoxy)-oxazolo[5,4-d]pyrimidin-2-yl]-2,6-dimethyl-phenoxy}-acetic acid]
127 | CCOc1nc(Oc2ccccc2F)nc2oc(-c3cc(C)c(OCC(=O)O)c(C)c3)nc12 [Example 26, {4-[7-ethoxy-5-(2-fluorophenoxy)-oxazolo[5,4-d]pyrimidin-2-yl]-2,6-dimethyl-phenoxy}-acetic acid]
